Reference: ChEMBL document CHEMBL5303573, “Mapping human microbiome drug metabolism by gut bacteria and their genes” (Nature, 2019)

How the values were obtained:
[1] = The drug is tested on Eubacterium hallii strain: DSM3353 for biotransformation. The drug concentrations were measured before and after a 12-h incubation by liquid-chromatography-coupled mass spectrometry (LC–MS); details: anaerobutyricum hallii, 2 µM
[2] = The drug is tested on Clostridium sporogenes strain: ATCC15579 for biotransformation. The drug concentrations were measured before and after a 12-h incubation by liquid-chromatography-coupled mass spectrometry (LC–MS); details: 2 µM
[3] = The drug is tested on Eubacterium ventriosum strain: ATCC27560 for biotransformation. The drug concentrations were measured before and after a 12-h incubation by liquid-chromatography-coupled mass spectrometry (LC–MS); assay type: ADME; parameters: dose 2 uM, timepoint 0 vs 12 hours; details: 2 µM
[4] = The drug is tested on Bifidobacterium longum subsp. Infantis strain: CCUG52486 for biotransformation. The drug concentrations were measured before and after a 12-h incubation by liquid-chromatography-coupled mass spectrometry (LC–MS); details: 2 µM
[5] = The drug is tested on Bifidobacterium ruminantium strain: fecal isolate for biotransformation. The drug concentrations were measured before and after a 12-h incubation by liquid-chromatography-coupled mass spectrometry (LC–MS); details: 2 µM
[6] = The drug is tested on Blautia luti strain: DSM14534 for biotransformation. The drug concentrations were measured before and after a 12-h incubation by liquid-chromatography-coupled mass spectrometry (LC–MS); assay type: ADME; parameters: dose 2 uM, timepoint 0 vs 12 hours; details: 2 µM
[7] = bacteroides fragilis, 12 h, 2 µM
Description: The drug is tested on Bacteroides fragilis strain: 3397 (T10) for biotransformation. The drug concentrations were measured before and after a 12-h incubation by liquid-chromatography-coupled mass spectrometry (LC–MS)

[8] = The drug is tested on Clostridium scindens strain: ATCC35704 for biotransformation. The drug concentrations were measured before and after a 12-h incubation by liquid-chromatography-coupled mass spectrometry (LC–MS); details: 2 µM
[9] = The drug is tested on Ruminococcus lactaris strain: ATCC29176 for biotransformation. The drug concentrations were measured before and after a 12-h incubation by liquid-chromatography-coupled mass spectrometry (LC–MS); details: 2 µM
[10] = The drug is tested on Clostridium sp. strain: fecal isolate for biotransformation. The drug concentrations were measured before and after a 12-h incubation by liquid-chromatography-coupled mass spectrometry (LC–MS); details: 2 µM
[11] = bifidobacterium adolescentis, 12 h, 2 µM
Description: The drug is tested on Bifidobacterium adolescentis strain: ATCC 15703 for biotransformation. The drug concentrations were measured before and after a 12-h incubation by liquid-chromatography-coupled mass spectrometry (LC–MS)

[12] = The drug is tested on Bacteroides ovatus strain: ATCC8483 for biotransformation. The drug concentrations were measured before and after a 12-h incubation by liquid-chromatography-coupled mass spectrometry (LC–MS); details: 2 µM
[13] = bacteroides thetaiotaomicron, 12 h, 2 µM
Description: The drug is tested on Bacteroides thetaiotaomicron strain: 3731 for biotransformation. The drug concentrations were measured before and after a 12-h incubation by liquid-chromatography-coupled mass spectrometry (LC–MS)

[14] = The drug is tested on Clostridium asparagiforme strain: DSM15981 for biotransformation. The drug concentrations were measured before and after a 12-h incubation by liquid-chromatography-coupled mass spectrometry (LC–MS); assay type: ADME; parameters: dose 2 uM, timepoint 0 vs 12 hours; details: enterocloster asparagiformis, 2 µM
[15] = The drug is tested on Ruminococcus torques strain: ATCC27756 for biotransformation. The drug concentrations were measured before and after a 12-h incubation by liquid-chromatography-coupled mass spectrometry (LC–MS); assay type: ADME; parameters: dose 2 uM, timepoint 0 vs 12 hours; details: 2 µM
[16] = The drug is tested on Collinsella aerofaciens strain: ATCC25986 for biotransformation. The drug concentrations were measured before and after a 12-h incubation by liquid-chromatography-coupled mass spectrometry (LC–MS); details: 2 µM
[17] = The drug is tested on Bifidobacterium breve strain: DSM20213 for biotransformation. The drug concentrations were measured before and after a 12-h incubation by liquid-chromatography-coupled mass spectrometry (LC–MS); details: 2 µM
[18] = roseburia intestinalis, 12 h, 2 µM
Description: The drug is tested on Roseburia intestinalis strain: L1-82 for biotransformation. The drug concentrations were measured before and after a 12-h incubation by liquid-chromatography-coupled mass spectrometry (LC–MS)

[19] = bacteroides fragilis, 12 h, 2 µM; remark: listed apart in the source
Description: The drug is tested on Bacteroides fragilis strain: NCTC 9343 for biotransformation. The drug concentrations were measured before and after a 12-h incubation by liquid-chromatography-coupled mass spectrometry (LC–MS)

[20] = The drug is tested on Bacteroides dorei strain: DSM17855 for biotransformation. The drug concentrations were measured before and after a 12-h incubation by liquid-chromatography-coupled mass spectrometry (LC–MS); details: phocaeicola dorei, 2 µM

Measured: Bacterial Biotransformation

CCc1cccc2c3c([nH]c12)C(CC)(CC(=O)O)OCC3 (centres undefined) [ETODOLAC]
not listed: [17] | [18] | [19] | [20]
Compound NOT metabolized: all other assays above

CCN(C)C(=O)Oc1cccc([C@H](C)N(C)C)c1.O=C(O)C(O)C(O)C(=O)O [RIVASTIGMINE TARTRATE]
not listed: [12] | [19] | [20]
Compound NOT metabolized: all other assays above

O=C(O)CCC(=O)O.O=C(O[C@H]1CN2CCC1CC2)N1CCc2ccccc2[C@@H]1c1ccccc1 [SOLIFENACIN SUCCINATE]
not listed: [20]
Compound NOT metabolized: all other assays above

CNS(=O)(=O)Cc1ccc2[nH]cc(CCN(C)C)c2c1.O=C(O)CCC(=O)O [SUMATRIPTAN SUCCINATE]
not listed: [7] | [12] | [13] | [20]
Compound NOT metabolized: all other assays above

CN1[C@@H]2CC[C@H]1C[C@@H](OC(=O)c1c[nH]c3ccccc13)C2 [TROPISETRON]
not listed: [2]
Compound NOT metabolized: all other assays above

Cc1ccc(-c2nc3ccc(C)cn3c2CC(=O)N(C)C)cc1 [ZOLPIDEM]
not listed: [8] | [12] | [20]
Compound NOT metabolized: all other assays above
